ChEMBL document CHEMBL1152112, “1-Phenyl-[2H]-tetrahydropyridazin-3-one, A-53612, a selective orally active 5-lipoxygenase inhibitor” (Bioorg Med Chem Lett, 1992)

Columns and labels:
Rattus norvegicus [1] = species on record: Rattus norvegicus; experiment: Toxicity was assessed from activity to convert hemoglobin to methemoglobin in vitro at 400 uM in rat; T-toxic
[2] = biological target: T1, Polyunsaturated fatty acid lipoxygenase ALOX12 (Homo sapiens, UniProt P18054); experiment: Inhibitory activity against human platelet 12-lipoxygenase was evaluated
T1 sequence (P18054 whole entry): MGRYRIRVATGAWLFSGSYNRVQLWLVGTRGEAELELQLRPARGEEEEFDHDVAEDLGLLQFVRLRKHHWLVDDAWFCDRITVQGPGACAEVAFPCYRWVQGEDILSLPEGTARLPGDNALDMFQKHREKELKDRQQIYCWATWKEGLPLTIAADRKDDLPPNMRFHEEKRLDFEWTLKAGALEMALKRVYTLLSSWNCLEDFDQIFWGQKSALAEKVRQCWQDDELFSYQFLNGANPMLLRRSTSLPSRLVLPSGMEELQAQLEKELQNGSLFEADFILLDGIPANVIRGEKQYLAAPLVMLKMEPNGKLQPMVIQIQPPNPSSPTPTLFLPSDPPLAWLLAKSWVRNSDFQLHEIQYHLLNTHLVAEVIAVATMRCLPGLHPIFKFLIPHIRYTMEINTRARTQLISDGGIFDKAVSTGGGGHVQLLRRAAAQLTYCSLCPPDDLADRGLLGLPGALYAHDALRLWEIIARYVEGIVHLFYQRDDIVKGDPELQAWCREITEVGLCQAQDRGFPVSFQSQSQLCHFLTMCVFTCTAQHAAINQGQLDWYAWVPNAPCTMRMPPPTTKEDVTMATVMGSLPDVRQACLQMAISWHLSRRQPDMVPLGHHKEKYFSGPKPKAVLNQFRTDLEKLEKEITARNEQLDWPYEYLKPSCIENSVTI

Rattus norvegicus [3] = experiment: The in vivo activity of compound was evaluated in a rat anaphylaxis model involving antigen-antibody stimulated leukotriene generation in the peritoneum by oral administration; assay type: functional
[4] = biological target: T2, Polyunsaturated fatty acid lipoxygenase ALOX12 (Homo sapiens) (UniProt P18054); experiment: Inhibitory activity against human platelet 12-lipoxygenase was evaluated at 100 uM
T2 sequence (whole entry): T1 sequence (P18054 whole entry)

Cyclooxygenase = biological target: T3, Cyclooxygenase (Rattus norvegicus, UniProt P35355+Q63921); experiment: Inhibitory activity against intact rat PMNL, PGE-2 cyclooxygenase was evaluated; assay type: protein assay
T3 sequence (P35355 whole entry): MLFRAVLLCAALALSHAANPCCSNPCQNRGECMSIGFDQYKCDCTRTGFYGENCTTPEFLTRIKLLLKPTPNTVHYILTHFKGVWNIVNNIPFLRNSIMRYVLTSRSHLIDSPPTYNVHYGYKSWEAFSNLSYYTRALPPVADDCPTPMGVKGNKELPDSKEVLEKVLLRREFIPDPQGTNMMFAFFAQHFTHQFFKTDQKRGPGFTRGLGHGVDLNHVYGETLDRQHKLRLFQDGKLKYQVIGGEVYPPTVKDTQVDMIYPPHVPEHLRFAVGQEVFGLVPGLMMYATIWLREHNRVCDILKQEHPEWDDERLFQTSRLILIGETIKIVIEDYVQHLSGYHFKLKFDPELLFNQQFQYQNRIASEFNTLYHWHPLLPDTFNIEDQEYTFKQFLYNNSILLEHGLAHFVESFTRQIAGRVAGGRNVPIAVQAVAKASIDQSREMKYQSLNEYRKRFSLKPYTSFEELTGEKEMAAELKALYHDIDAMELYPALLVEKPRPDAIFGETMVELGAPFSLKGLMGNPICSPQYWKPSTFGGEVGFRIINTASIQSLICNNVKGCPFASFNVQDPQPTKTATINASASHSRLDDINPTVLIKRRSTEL
T3 sequence (Q63921 whole entry): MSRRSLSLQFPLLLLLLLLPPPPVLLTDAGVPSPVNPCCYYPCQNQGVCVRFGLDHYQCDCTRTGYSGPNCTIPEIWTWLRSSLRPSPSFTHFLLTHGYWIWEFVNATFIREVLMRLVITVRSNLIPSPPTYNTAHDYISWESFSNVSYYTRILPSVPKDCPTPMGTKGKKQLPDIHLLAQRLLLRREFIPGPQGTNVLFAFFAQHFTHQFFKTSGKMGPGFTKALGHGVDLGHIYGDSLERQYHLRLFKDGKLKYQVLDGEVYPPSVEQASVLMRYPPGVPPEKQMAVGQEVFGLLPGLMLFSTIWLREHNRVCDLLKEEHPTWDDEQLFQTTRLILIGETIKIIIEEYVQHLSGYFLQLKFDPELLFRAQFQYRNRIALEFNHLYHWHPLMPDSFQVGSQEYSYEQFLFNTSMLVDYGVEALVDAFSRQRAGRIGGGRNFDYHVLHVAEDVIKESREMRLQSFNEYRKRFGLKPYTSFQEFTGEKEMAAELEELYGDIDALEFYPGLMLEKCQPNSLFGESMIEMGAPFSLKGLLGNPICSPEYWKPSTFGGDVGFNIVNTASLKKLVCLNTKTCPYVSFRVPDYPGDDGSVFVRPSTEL

[5] = biological target: T4, Polyunsaturated fatty acid 5-lipoxygenase (Homo sapiens, UniProt P09917); experiment: Inhibitory activity against human whole blood, LTB4 5-lipoxygenase was evaluated
T4 sequence (P09917 whole entry): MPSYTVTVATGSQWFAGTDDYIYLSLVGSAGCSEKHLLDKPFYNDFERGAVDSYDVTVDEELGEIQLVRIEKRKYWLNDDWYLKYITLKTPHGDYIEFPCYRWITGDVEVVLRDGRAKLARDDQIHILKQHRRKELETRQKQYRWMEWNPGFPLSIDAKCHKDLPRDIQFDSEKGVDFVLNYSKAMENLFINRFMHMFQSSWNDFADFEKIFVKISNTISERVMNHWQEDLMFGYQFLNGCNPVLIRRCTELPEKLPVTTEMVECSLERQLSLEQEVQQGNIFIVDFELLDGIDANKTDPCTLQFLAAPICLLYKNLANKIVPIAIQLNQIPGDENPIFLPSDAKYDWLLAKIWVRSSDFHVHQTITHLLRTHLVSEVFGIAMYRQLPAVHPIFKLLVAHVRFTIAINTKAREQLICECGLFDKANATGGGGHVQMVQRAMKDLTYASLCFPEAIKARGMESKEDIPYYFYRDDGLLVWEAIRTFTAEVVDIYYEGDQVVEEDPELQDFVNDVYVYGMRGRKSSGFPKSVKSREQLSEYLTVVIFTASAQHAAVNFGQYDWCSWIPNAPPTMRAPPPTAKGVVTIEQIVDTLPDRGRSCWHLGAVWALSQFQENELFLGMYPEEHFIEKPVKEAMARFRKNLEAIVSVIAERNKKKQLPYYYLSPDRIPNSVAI

[6] = biological target: T4, Polyunsaturated fatty acid 5-lipoxygenase; experiment: Inhibitory activity against intact human PMNL, LTB4 5-lipoxygenase was evaluated
[7] = biological target: T5, Polyunsaturated fatty acid 5-lipoxygenase (Rattus norvegicus, UniProt P12527); experiment: Inhibitory activity against RBL broken cell-supematant 5-lipoxygenase was evaluated; assay type: cell-based
T5 sequence (P12527 whole entry): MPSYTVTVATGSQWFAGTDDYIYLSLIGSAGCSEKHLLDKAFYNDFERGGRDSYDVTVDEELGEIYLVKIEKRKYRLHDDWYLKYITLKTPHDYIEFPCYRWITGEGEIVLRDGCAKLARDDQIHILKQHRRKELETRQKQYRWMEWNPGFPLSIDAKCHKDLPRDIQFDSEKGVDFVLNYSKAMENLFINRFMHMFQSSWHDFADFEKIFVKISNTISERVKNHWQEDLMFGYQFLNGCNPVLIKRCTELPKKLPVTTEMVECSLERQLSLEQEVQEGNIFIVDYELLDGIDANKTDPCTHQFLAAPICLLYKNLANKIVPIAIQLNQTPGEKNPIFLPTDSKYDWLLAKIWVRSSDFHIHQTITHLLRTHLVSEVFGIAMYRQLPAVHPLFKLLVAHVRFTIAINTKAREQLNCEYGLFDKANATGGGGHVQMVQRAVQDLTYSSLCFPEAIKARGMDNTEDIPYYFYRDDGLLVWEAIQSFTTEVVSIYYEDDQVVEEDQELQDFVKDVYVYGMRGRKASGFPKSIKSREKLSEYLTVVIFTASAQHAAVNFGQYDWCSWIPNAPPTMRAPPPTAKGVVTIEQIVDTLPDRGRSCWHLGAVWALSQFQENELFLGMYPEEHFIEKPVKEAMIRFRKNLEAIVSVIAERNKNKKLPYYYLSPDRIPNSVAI

[8] = biological target: T5, Polyunsaturated fatty acid 5-lipoxygenase; experiment: Inhibitory activity against intact rat PMNL, LTB4 5-lipoxygenase was evaluated
[9] = Compound was evaluated for Plasma levels upon oral administration at 30 mg/kg in Dog at maximum of 0.3 hours; assay type: ADME, organism-based, Canis lupus familiaris; design: dose 30 mg/kg, route oral
[10] = Compound was evaluated for Plasma levels upon oral administration at 30 mg/kg in Monkey at maximum of 0.4 hours; assay type: ADME, organism-based; design: dose 30 mg/kg, route oral; details: cercopithecidae, read-out: Concentration
[11] = Compound was evaluated for Plasma levels upon oral administration at 30 mg/kg in Monkey at maximum of 1.0 hours; assay type: ADME, organism-based; design: dose 30 mg/kg, route oral; details: cercopithecidae, read-out: Concentration
[12] = Half-life upon intravenous administration was tested; assay type: ADME, organism-based; details: in vivo
[13] = biological target: Cyclooxygenase (Rattus norvegicus) (UniProt P35355+Q63921); experiment: Inhibitory activity against intact rat PMNL, PGE-2 cyclooxygenase was evaluated at 100 uM; assay type: protein assay
Rattus norvegicus [14] = experiment: In vivo activity of compound was evaluated in a rat anaphylaxis model involving antigen-antibody stimulated leukotriene generation in the peritoneum by oral administration; assay type: functional
[15] = biological target: Cyclooxygenase (Homo sapiens) (UniProt P35354+P23219); experiment: Inhibitory activity against human whole blood, TXB2 cyclooxygenase was evaluated at 100 uM; assay type: protein assay

O=C1CCC(O)N(c2ccccc2)N1 (stereo unspecified)
Activity (Rattus norvegicus [1]): Toxic

O=C1CCN(c2ccccc2)N1 [PHENIDONE]
IC50 [2]: 100 nM
ED50 (Rattus norvegicus [3]): 17 mg/kg

NC1=NN(c2cccc(C(F)(F)F)c2)CC1 [BW-755C]
inhibition [4]: 5%
IC50 (Cyclooxygenase): 800 nM
ED50 (Rattus norvegicus [3]): 36 mg/kg

O=C(O)[C@H]1O[C@@H](OC2=NN(c3ccccc3)CCC2)[C@H](O)[C@@H](O)[C@@H]1O
Activity (Rattus norvegicus [1]): Toxic

O=C1CCCN(c2ccc(O)cc2)N1
Activity (Rattus norvegicus [1]): Toxic

O=C1CCCN(c2ccc(O[C@H]3O[C@@H](C(=O)O)[C@H](O)[C@@H](O)[C@@H]3O)cc2)N1
Activity (Rattus norvegicus [1]): Toxic

O=C1CCCN(c2ccccc2)N1
inhibition [4]: 7%
IC50 [5]: 700 nM
IC50 [6]: 1000 nM
IC50 [7]: 4300 nM
IC50 [8]: 1200 nM
concentration at 0.3 h [9]: 124 µM
Cmax [10]: 22 µM
Cmax [11]: 90 µM
half-life [12]: 1.1 h
inhibition [13]: 3%
ED50 (Rattus norvegicus [14]): 6 mg/kg
inhibition [15]: 13%
